Assay results as given in patent US10125104B2, “Carotenoid derivative, pharmaceutically acceptable salt thereof, or pharmaceutically acceptable ester or amide thereof” (Asta Pharmaceuticals Co., Ltd., priority 2014, dated 2018).

Tests used:
[1] = system: IL-1β mRNA in RAW264.7 cells; assay: Test for anti-inflammation in a cell: IL-1β mRNA by quantitative RT-PCR after LPS; type: cell-based, mouse; conditions: for suppression of IL-1β gene expression (in words): RAW264.7 cells, LPS; for IL-1β Gene expressivity: relative to the control, LPS 1 ng/mL, 2 hours
Method: Test for Anti-Inflammation in a Cell
These cells were cultured for 48 hours in 5% CO2 at 37° C. After the medium replacement, an aqueous solution of the sample was added to the medium and the cell was cultured for 24 hours. The medium was then replaced, LPS (1 ng/mL) was added thereto and the cell was cultured for 2 hours.
Then, the medium was removed and the RAW264.7 cells were washed with physiological phosphate buffer solution (PBS). This operation was performed 3 times. Then, Total RNA was extracted using RNeasy Mini Kit (QIAGEN Inc.), and the production amount of IL-1β mRNA which is an inflammatory cytokine, was measured by a quantitative RT-PCR method using PRISM 7000 (Applied Biosystem).

TNF-α = assay: Test for anti-inflammation in rats (LPS intraperitoneally): blood plasma TNF-α by ELISA; type: in vivo, Wistar rats; conditions: for TNF-α concentration in blood plasma: 4 mg/kg LPS i.p., then sample i.p., blood after 9 hours
Method: (§1) Test for Anti-Inflammation in Rats
(§2) Six week-old Wistar rats (purchased from Sankyo Labo Service Corporation, 200-250 g body weight) were acclimatized for 1 week with free access to food under a 12/12-hr light-dark cycle. An aqueous solution of 4 mg/kg LPS (lipopolysaccharide, derived from Escherichia coli and manufactured by Wako Pure Chemical Industries, Ltd.) was injected intraperitoneally and then an aqueous solution of the sample was injected intraperitoneally. After 9 hours, the whole blood was collected from the ventral aorta and centrifuged for 10 minutes at 10,000 rpm, and the blood plasma was collected. The blood plasma TNF-α concentration was measured using a kit for measuring TNF-α (Rat TNF-alpha Quantikine ELISA Kit RTA00, manufactured by R&D Systems Inc.) and the blood plasma IL-1β concentration was measured using a kit for measuring IL-1β (Rat IL-1b/IL1F2 Quantikine ELISA Kit, manufactured by R&D Systems Inc.). The 3 to 4 animals per group were used. The blood plasma TNF-α concentration is shown in Table 46 and FIG. 3 and the blood plasma IL-1β concentration is shown in Table 46 and FIG. 4.

IL-1β = assay: Test for anti-inflammation in rats (LPS intraperitoneally): blood plasma IL-1β by ELISA; type: in vivo, Wistar rats; conditions: for IL-1β concentration in blood plasma: 4 mg/kg LPS i.p., then sample i.p., blood after 9 hours
Method: as §1, §2

[2] = Test for confirmation of water solubility (distribution to water/methylene chloride); type: physicochemical
Method: Test for Confirmation of Water Solubility (Distribution to Water/Methylene Chloride)
To each of the samples (1 mg) in Table 43, water (5 mL) and methylene chloride (5 mL) were added and the mixture was shaken, which was called the group of Solution A. A 28% sodium methoxide/methanol solution (463 μL (2.33 mmol)) was dissolved in water (10 mL), and the aqueous solution (1 mL) was collected and dissolved in water (100 mL), which was called Solution B. To each of the group of Solution A, Solution B (1 mL) was added and shaken. The solution was left at room temperature, each of the aqueous layer and of the organic layer were measured by HPLC and the ratio of the compound in the aqueous layer was shown in Table 4.
HPLC conditions were as follows:
chromatograph (HITACHI LaChrom Elite D-2000), column (SHISEIDO CAPCELL PAK C18 (3 μm particle diameter, 4.6 mm×150 mm)), detection temperature (40° C.), detection wavelength (474 nm), flow rate (1.0 mL/min) and mobile phase set up (% A=0.025% TFA/water, % B=0.025% TFA/acetonitrile); 70% A/30% B (at the start), 50% B gradient until 2.5 minutes, 98% B gradient until 4.2 minutes and the ratio (98% B) maintained until 15 minutes. The ratio in the aqueous layer was calculated from the following equation. […]

[3] = digestive absorption; cited from earlier work
[4] = Test for oral absorption: blood plasma concentration of astaxanthin after oral gavage; type: in vivo, Wistar rat; conditions: compared to astaxanthin (free form) and the extract from Haematococcus algae
Method: Test for Oral Absorption in […]
Each of the compound in Example 8, astaxanthin (free form) and an extract from Haematococcus algae (AstaReal L10, manufactured by Fuji Chemical Industries Co., Ltd., oil containing 10% astaxanthin extracted from Haematococcus algae) was diluted with 33% dimethyl sulfoxide, 60% polyethylene glycol and 0.03% aqueous carboxymethyl cellulose solution and prepared to have a concentration of 5 mg/ml as a conversion to astaxanthin free form. The prepared sample was administered to a Wistar rat fasted one night (male, 9 to 13 weeks old, 250 to 300 g of body weight, 2 or 4 animals per group) by oral gavage in an amount of astaxanthin (50 mg) per 1 kg of body weight. Then, the blood was collected at the time points of 3 hours, 6 hours and 24 hours and the blood plasma was isolated. To the obtained blood plasma (0.1 ml), acetone in an amount of 6 folds and hexane in an amount of 50 folds were added, and the solution was stirred well and centrifuged to obtain a hexane layer. The hexane layer was dried under reduced pressure and dissolved in acetone (0.1 ml). The obtained acetone solution (0.05 mL) was analyzed by high performance liquid chromatography (HPLC) under the following conditions and the blood concentration was measured. […]

[5] = compared to astaxanthin and disodium disuccinate astaxanthin

Row | SMILES | suppression of IL-1β gene expression (in words) [1] | IL-1β Gene expressivity ([1]; sample concentration 5 μM) | TNF-α concentration in blood plasma (TNF-α) [pg/mL] | IL-1β concentration in blood plasma (IL-1β) [pg/mL] | IL-1β Gene expressivity ([1]; sample concentration 25 μM) | IL-1β Gene expressivity ([1]; sample concentration 50 μM) | also measured
1 | CC(C=CC=C(C)C=CC1=C(C)C(=O)C(OC(=O)CNC(=O)NCCCC(=O)O)CC1(C)C)=CC=CC=C(C)C=CC=C(C)C=CC1=C(C)C(=O)C(OC(=O)CNC(=O)NCCCC(=O)O)CC1(C)C.NCCCC[C@H](N)C(=O)O.NCCCC[C@H](N)C(=O)O (stereo not drawn) [Example (23), 4-(3-{4-[18-(4-[3-(3-carboxypropyl)ureidoacetoxy]-2,6,6-trimethyl-3-oxocyclohexa-1-enyl)-3,7,12,16-tetramethyloctadeca-1,3,5,7,9,11,13,15,17-nonaenyl]-3,5,5-trimethyl-2-oxocyclohexa-3-enyloxycarbonylmethyl}-ureido)butyric acid dilysine salt] | suppressed IL-1β gene expression superiorly to astaxanthin | 0.88 | 81.8 ± 83.5 | 146.3 ± 98.0 | – | – | suppression of generation of TNF-α (in words) (TNF-α; [5]): suppressed generation of TNF-α and of IL-1β more effectively; suppression of generation of IL-1β (in words) (IL-1β; [5]): suppressed generation of TNF-α and of IL-1β more effectively
2 | CC1=C(/C=C/C(C)=C/C=C/C(C)=C/C=C/C=C(C)/C=C/C=C(C)/C=C/C2=C(C)C(=O)C(OC(=O)CCC(=O)O)CC2(C)C)C(C)(C)CC(OC(=O)CCC(=O)O)C1=O (stereo not drawn) [Disodium Disuccinate Astaxanthin (DDA), Disodium Disuccinate Astaxanthin, reference compound] | – | – | 99.6 ± 99.9 | 311.7 ± 269.1 | – | – | –
3 | CC(C=CC=C(C)C=CC1=C(C)C(=O)C(O)CC1(C)C)=CC=CC=C(C)C=CC=C(C)C=CC1=C(C)C(=O)C(O)CC1(C)C (stereo not drawn) [Astaxanthin, 6-hydroxy-3-(18-[4-hydroxy-2,6,6-trimethyl-3-oxo-1-cyclohexenyl]-3,7,12,16-tetramethyloctadeca-1,3,5,7,9,11,13,15,17-nonaenyl)-2,4,4-trimethyl-2-cyclohexen-1-one, reference compound] | – | 1.00 | 112.0 ± 35.6 | 203.9 ± 165.3 | 0.96 | 0.77 | water solubility (in words) [2]: extremely low solubility in water; biological availability [3]: around several percent
4 | CC(C=CC=C(C)C=CC1=C(C)C(=O)C(OC(=O)CCC(=O)O)CC1(C)C)=CC=CC=C(C)C=CC=C(C)C=CC1=C(C)C(=O)C(OC(=O)CCC(=O)O)CC1(C)C (stereo not drawn) [Astaxanthin disuccinate ester, astaxanthin disuccinic acid ester] | – | – | – | – | – | – | Ratio of aqueous layer ([2]; 1 mg sample in water 5 mL / methylene chloride 5 mL plus dilute sodium methoxide solution, HPLC peak areas, 474 nm): 43.8%
5 | CC(C=CC=C(C)C=CC1=C(C)C(=O)C(OC(=O)CNC(=O)NCCCC(=O)[O-])CC1(C)C)=CC=CC=C(C)C=CC=C(C)C=CC1=C(C)C(=O)C(OC(=O)CNC(=O)NCCCC(=O)[O-])CC1(C)C.[Na+].[Na+] (stereo not drawn) [Example (22), 4-(3-{4-[18-(4-[3-(3-carboxypropyl)ureidoacetoxy]-2,6,6-trimethyl-3-oxocyclohexa-1-enyl)-3,7,12,16-tetramethyloctadeca-1,3,5,7,9,11,13,15,17-nonaenyl]-3,5,5-trimethyl-2-oxocyclohexa-3-enyloxycarbonylmethyl}-ureido)butyric acid disodium salt] | suppressed IL-1β gene expression superiorly to astaxanthin | 0.92 | – | – | 0.66 | 0.31 | –
6 | CC(C=CC=C(C)C=CC1=C(C)C(=O)C(OC(=O)CNC(=O)NCCCC(=O)O)CC1(C)C)=CC=CC=C(C)C=CC=C(C)C=CC1=C(C)C(=O)C(OC(=O)CNC(=O)NCCCC(=O)O)CC1(C)C (stereo not drawn) [Example (8), 4-(3-{4-[18-(4-[3-(3-carboxylpropyl)ureidoacetoxy]-2,6,6-trimethyl-3-oxocyclohexa-1-enyl)-3,7,12,16-tetramethyloctadeca-1,3,5,7,9,11,13,15,17-nonaenyl]-3,5,5-trimethyl-2-oxocyclohexa-3-enyloxycarbonylmethyl}-ureido)butyric acid] | – | – | – | – | – | – | oral absorbability (in words) [4]: higher oral absorbability
